Measured values as given in patent publication US20050100903A1, “Screening method” (priority 2001, published 2005).

Tests used:
[1] = tested on: CEACAM-1 expression in HT29 cells; experiment: Western Blot of CEACAM expression in HT29 colon carcinoma cells; type: cell-based, human; conditions: HT29, 10 ng/ml, 6 hours
Protocol: HT29 colon carcinoma cells were incubated for 6 hours with TNF-α (10 ng/ml). The cells were examined microscopically for vitality, then lysed, their total protein isolated and separated electrophoretically. 8 μg protein was separated per lane. An anti-CEA antibody and an anti-mouse-HRP-coupled secondary antibody (Dianova, Hamburg, Germany) were used for detection. A cross-reacting anti-CEA antibody was chosen to investigate the selectivity of candidate substances for the expression of individual antigens. The selectivity of the substance effects is important since CEACAM-1 and CEACAM-7/CEA and CEACAM-6 can have antagonistic effects on apoptosis.
The proportionality of expression of individual CEACAMs can be quantified in Western Blot after densitometric evaluation (e.g., public domain NIH software IMAGE 1.6.1). The antigens are identified in the Western Blot through assignment to relative molar mass. The molecular size of the individual CEACAMs is described in the literature. The Western Blot was normalized with β-actin (Sigma-Aldrich, Taufkirchen, Germany). This blot (FIG. 6) was subsequently evaluated densitometrically using the NIH Image Software 1.6.1.
200 nM wortmannin (Calbiochem-Novabiochem, Nottingham, UK) was incubated with 1×10^6 cells/well (6-well plate) for 3, 8 or 24 hours. […]

HT29 cells = experiment: Apoptosis in HT29 cells with or without γ-interferon stimulation, with antibody cross-linking; type: cell-based, human; conditions: addition over a short period (500 U/ml, 6 hours)
Protocol: HT29 cells were treated for 6 hours with 500 U/ml γ-interferon. The procedure was also run without interferon stimulation. After change of medium, the cells were treated with primary antibodies as in Example 4. These were: mAb 4D1C2 (anti-CEACAM-1 at 4 μg/ml) or irrelevant mAb 7D11 (anti-β-catenin at 1 μg/ml). A test run without antibody was used as a second negative control.
After medium change, secondary antibody (anti-mouse at 15 μg/ml) was added. After a total experiment duration of 80-96 hours, the level of apoptosis was determined using standard propidium iodide staining or the apoptosis ELISA of ROCHE Molecule Systems, strictly in accordance with the instructions of the manufacturer. All experiments were performed in triplicate and repeated 3× independently. The Wilcoxon signed ranks test was used to assess the significance of the data.

Row | Substance | Influence on other proteins of the CEACAM family [1] | Upregulation of CEACAM-1 compared to the untreated sample ([1]; densitometry of Western Blot normalized with β-actin) | CEACAM-1 production in HT29 cells (HT29 cells)
1 | TNF-α | without influencing | approximately 2 fold | 
2 | gamma-interferon: gamma-interferon, stimulates HT29 cells to produce CEACAM-1 |  |  | stimulates
